Reference: ChEMBL document CHEMBL3612052, “Identification of amino acid appended acridines as potential leads to anti-cancer drugs” (Bioorg Med Chem Lett, 2015)
Calls of active or inactive are those of the source. The calls are words filed in the database; no cut-off is given here.

Assays:
C6 [1] = assay: Antiproliferative activity against rat C6 cells after 72 hrs by MTT assay; format: functional, cell-based; conditions: C6, 72 h
C6 [2] = assay: Cell cycle arrest in rat C6 cells assessed as accumulation at G0/G1 phase at 10 uM after 36 hrs by propidium iodide staining-based flow cytometric analysis; format: functional
C6 [3] = assay: Antiproliferative activity against rat C6 cells at 10 uM by phase contrast microscopic analysis relative to control; format: functional, cell-based
C6 [4] = assay: Cell cycle arrest in rat C6 cells assessed as decrease in cell number in G2/M phase at 10 uM after 36 hrs by propidium iodide staining-based flow cytometric analysis relative to control; format: functional
C6 [5] = assay: Cell cycle arrest in rat C6 cells assessed as decrease in cell number in S phase at 10 uM after 36 hrs by propidium iodide staining-based flow cytometric analysis relative to control; format: functional
C6 [6] = assay: Cell cycle arrest in rat C6 cells assessed as accumulation at G0/G1 phase at 10 uM after 36 hrs by propidium iodide staining-based flow cytometric analysis relative to control; format: functional
C6 [7] = assay: Antiproliferative activity against rat C6 cells assessed as appearance of differentiated morphology with long stellate process at 20 uM by alpha-tubulin immunostaining-based phase contrast microscopic analysis; format: functional, cell-based
C6 [8] = assay: Antiproliferative activity against rat C6 cells assessed as reduction in cell number at 20 uM by alpha-tubulin immunostaining-based phase contrast microscopic analysis; format: functional
C6 [9] = assay: Antiproliferative activity against rat C6 cells assessed as appearance of small cell body at 20 uM by alpha-tubulin immunostaining-based phase contrast microscopic analysis; format: functional
C6 [10] = assay: Antiproliferative activity against rat C6 cells assessed as appearance of differentiated morphology with long stellate process at 10 to 20 uM by DAPI staining-based confocal microscopic analysis; format: functional, cell-based
C6 [11] = assay: Antiproliferative activity against rat C6 cells assessed as reduction in cell number at 10 to 20 uM by DAPI staining-based confocal microscopic analysis; format: functional
C6 [12] = assay: Antiproliferative activity against rat C6 cells assessed as appearance of small cell body at 10 to 20 uM by DAPI staining-based confocal microscopic analysis; format: functional
C6 [13] = assay: Downregulation of GFAP expression in rat C6 cells by DAPI staining-based confocal microscopic analysis; format: functional, cell-based
C6 [14] = assay: Induction of senescence in rat C6 cells assessed as translocation of mortalin from perinuclear region to pancytoplasmic region by DAPI staining-based confocal microscopic analysis; format: functional, cell-based
C6 [15] = assay: Induction of senescence in rat C6 cells assessed as upregulation of mortalin expression in nucleus by DAPI staining-based confocal microscopic analysis; format: functional, cell-based
C6 [16] = assay: Induction of senescence in rat C6 cells assessed as upregulation of HSP70 expression at 10 ug/ml by DAPI staining-based confocal microscopic analysis; format: functional, cell-based

SMILES	IC50 (C6 [1])	Activity (C6 [2])	Activity (C6 [3])	Activity (C6 [4])	Activity (C6 [5])	Activity (C6 [6])	Activity (C6 [7])	Activity (C6 [8])	Activity (C6 [9])	Activity (C6 [10])	Activity (C6 [11])	Activity (C6 [12])	Activity (C6 [13])	Activity (C6 [14])	Activity (C6 [15])	Activity (C6 [16])
COC(=O)CNC(=O)[C@H](Cc1ccc(O)cc1)NC(=O)c1cccc2c(=O)c3ccccc3[nH]c12	14 µM	Active	Active	Active	Active	Active	Active	Active	Active	Active	Active	Active	Active	Active	Active	Active
O=C(O)CNC(=O)[C@@H]1CCCN1C(=O)[C@H](Cc1ccc(O)cc1)NC(=O)c1cccc2c(=O)c3ccccc3[nH]c12	14 µM	Active	Active	Active	Active	Active	Active	Active	Active	Active	Active	Active	Active	Active	Active	Active
O=C(N[C@@H](Cc1ccc(O)cc1)C(=O)O)c1cccc2c(=O)c3ccccc3[nH]c12	14 µM	Active														
COC(=O)[C@@H](NC(=O)c1cccc2c(=O)c3ccccc3[nH]c12)C(C)C	14 µM	Active														
COC(=O)[C@H](Cc1ccc(O)cc1)NC(=O)c1cccc2c(=O)c3ccccc3[nH]c12	14 µM	Active														
O=C(N[C@@H](Cc1ccc(O)cc1)C(=O)NCC(=O)N1CCC[C@H]1C(=O)O)c1cccc2c(=O)c3ccccc3[nH]c12	14 µM	Active	Active	Active	Active	Active	Active	Active	Active	Active	Active	Active	Active	Active	Active	Active
